This is an account of results in patent US20240158448A1, “MULTIVALENT NANO-'SELF' PEPTIDES AND USES THEREOF” (THE TRUSTEES OF THE UNIVERSITY OF PENNSYLVANIA, priority 2021, published 2024).

The test system of test [1] is human THP-1 macrophages. Put plainly: In vitro phagocytosis assay: opsonized human RBCs engulfed by peptide-treated THP-1 macrophages. The format is cell-based. As to the method: In vitro phagocytosis assay. Fresh human RBCs were washed twice with 50 mM EDTA (Thermo Fischer) in PBS (Gibco) then twice with 5% FBS in PBS. RBCs were opsonized with 20 μg/mL rabbit anti-human RBC antibody (Rockland) in 5% FBS for 1 hour at RT with shaking. For CD47 blocked RBCs, 5 μg/mL of mouse anti-human CD47 (B6H12; BD Biosciences) were added. Thereafter, RBCs were washed with PBS three times and stained with PKH26 dye (1:800 dilution in PBS; Sigma) for 1 hour at RT with shaking in the dark. RBCs were washed and resuspended in PBS.
THP-1 monocytes were PMA differentiated in RPMI for 48 hours. Macrophages were then washed with RPMI media three times. For SIRPα blocked THP-1 macrophages, 20 nM, 1 μM or 50 μM of the nano—Self peptides were incubated with the THP-1 macrophages for 1 hour at 37 ° C., 5% CO2 and 95% humidity. Those THP-Is were then washed with RPMI three times.
(§1) CO2 and 95% humidity. Macrophages were then washed with RPMI three times. Adherent and uninternalized RBCs were lysed with water for 30 seconds followed by immediate replacement with RPMI media. In order to distinguish remaining adherent RBCs from internalized RBCs, opsonized RBCs were stained with AlexaFluor 647 donkey anti-rabbit (binds to rabbit polyclonal opsonin on RBC; Invitrogen) IgG (1:1000) while unopsonized, CD47 blocked RBCs were stained with AlexaFluor 647 donkey anti-mouse (binds to mouse monoclonal anti-CD47 on RBCs; Invitrogen) IgG (1:1000) for 30 minutes. After washing, macrophages were fixed with 4% formaldehyde for 15 minutes at RT, washed with PBS, stained with 1 μg/mL Hoechst 33342, and then washed with PBS again. Fluorescence imaging was performed as described elsewhere herein and quantification was done using ImageJ. At least 200 cells were analyzed and experiments were repeated at least three times.

The test system of test [2] is mouse J774A.1 macrophages. Put plainly: In vitro phagocytosis assay: opsonized human RBCs engulfed by mouse J774A.1 macrophages. The format is cell-based. Particulars: for effect on phagocytosis of opsonized RBCs (words): saturating / 50 μM peptide. As to the method:
as §1, with “In vitro phagocytosis assay. […] For CD47 blocked RBCs, 5 μg/mL of mouse anti-human CD47 (B6H12; BD Biosciences) were added. Thereafter, RBCs were washed with PBS three times and stained with PKH26 dye (1:800 dilution in PBS; Sigma) for 1 hour at RT with shaking in the dark. RBCs were washed and resuspended in PBS. J774A.1 macrophages were plated for 24 hours in RPMI. For SIRPα blocked J774A.1 macrophages, the same peptide blocking procedure as described elsewhere herein was used with the addition of a positive control using 5 μg/mL rat anti-mouse SIRPα ([…]; BD Biosciences). […] CO2” for “CO2”

Test [3] deals with mouse bone marrow derived macrophages (BMDMs). The test is described as follows: Phagocytosis of anti-TYRP1 opsonized B16F10 melanoma cells by mouse bone marrow derived macrophages. The format is cell-based. The note with it: 50 μM peptide. As to the method: B16F10 cells: Bone marrow cells were isolated from femurs and tibias of healthy C57BL6/J mice (The Jackson Laboratory) and cultured in 10-cm petri dishes containing IMDM (Gibco) supplemented with 10% v/v FBS, 1% v/v penicillin/streptomycin, and 1:10,000 macrophage colony stimulating factor cytokine (M-CSF; Biolegend) for 7 days at 37° C., 5% CO2 and 95% humidity. All animal experiments were performed according to protocols approved by the University of Pennsylvania's IACUC (protocol #805977 and #804455). The resulting mouse bone marrow derived macrophages (BMDMs) were washed with PBS containing Ca2^+/Mg2^+ (Gibco) then detached with 0.25% trypsin-EDTA (Gibco) and re-plated in 6-well tissue culture plates using IMDM+M-CSF for 24 hours.
Mouse melanoma B16F10 cells were washed with PBS containing Ca2-/Mg2- and then trypsinized with 0.05% trypsin-EDTA. After washing twice with PBS, the cells were labeled with 1:10,000 CFDA—SE (Thermo Fisher) in PBS for 10 minutes. B16F10 cells were opsonized with 10 μg/mL anti-TYRP1 (TA99; Bio X Cell) in PBS for 2 hours at 4° C.with occasional inverting. For CD47 blocked B16F10 cells, 5 μg/mL of […] were added. During the incubation time, the BMDMs were washed with media then stained with 1:2,000 CellTracker Deep Red (Thermo Fisher) in PBS with Ca2^+/Mg2^+ for 10 min. After washing, 50 μM of the nano—Self peptides were incubated with the BMDMs for 1 hour at 37° C., 5% CO2 and 95% humidity. Finally, BMDMs were washed twice with PBS and then twice with serum-free IMDM.
Without removing the supernatant, the opsonized melanoma cells were added to the labeled BMDMs at a ratio of 2:1 for 2 hours at 37° C., 5% CO2 and 95% humidity. During the last 15 minutes of the assay, the cells were Hoechst stained. The wells were washed with serum free IMDM then fixed with 4% formaldehyde for 15 minutes at RT, and PBS washed. Fluorescence imaging was performed using an Olympus IX71 with a digital EMCCD camera (Cascade 512B) and a 40×/0.6 NA objective. Quantification was done with ImageJ (NIH). At least 200 cells were analyzed and two-tailed student's t-test was used to determine statistical significance.

Test [4] has as its system human THP-1 macrophages. Put plainly: Residual adhesion of opsonized RBCs to macrophages. The format is cell-based. Particulars: 50 μM peptide. From the text:
To measure the residual adhesion of RBCs and distinguish it from internalization by macrophages, the engulfment assay with human RBCs used a secondary antibody against the opsonizing IgG, which allowed us to clearly see RBCs in contact with macrophages that are not internalized (FIG. 29C). The cells are also firmly attached to the macrophages because the culture dishes were rinsed after fixation and secondary antibody labeling. […] All of the RBCs in these samples are equally opsonized with IgG that binds Fc-receptors (FcR's) on macrophages, and so differences in measured adhesion implicate differences in the CD47—SIRPα interaction.

The test system of a further test is THP-1 macrophages. Put plainly: Phosphotyrosine (pTyr) staining of THP-1 macrophages. The note with it: 50 μM peptide. Type of test: cell-based, human. As to the method:
Phosphotyrosine (pTyr) staining. THP-1 monocytes were PMA differentiated for 48 hours. Macrophages were washed with RPMI three times then incubated with 50 μM and 20 nM of either nS-F or nS-FF for 1 hour at 37° C., 5% CO2 and 95% humidity. The same conditions were replicated with the addition of 5 μg/mL anti-CD47. Excess peptide was washed with PBS then macrophages were fixed. […] After washing with PBS, the macrophages were incubated with 1:100 mouse anti-pTyr (Santa Cruz Biotechnology) for 1 hour at room temperature with shaking. Macrophages were washed with PBS then stained with AlexaFluor 488 donkey anti-mouse (1:1000; Invitrogen) and 1 μg/mL Hoechst 33342 for 1 hour with shaking then washed again. Fluorescence imaging and quantification was performed as described elsewhere herein.

Test [5] relates to A549 (SIRPα positive) cells. Put plainly: Confocal live staining with FAM-labeled peptides, A549 cells. Type of test: binding, human. Particulars: 100 uM and 1 μM FAM-labeled peptide. As to the method: SIRPα staining and confocal imaging. THP-1 monocytes were PMA-differentiated in RPMI 1640 for 24 hours. J774A.1, A549, and COS-1 cells were plated for 24 hours in media, respectively. Cells were washed with respective media prior to addition of fluorescent peptides. The peptides were left to incubate for 1 hour at 37 ° C., 5% CO2 and 95% humidity. For fixed cell staining, cells were incubated with 4% formaldehyde (Pierce) for 15 minutes prior to the addition of fluorescent peptides whereas for live cell staining, fixation was done after incubation with the FAM-labeled peptides. Nuclei were stained with 1 μg/mL Hoechst 33342 (Invitrogen). Cells were the washed PBS three times before analysis. Fluorescence imaging of fixed cells was performed using an Olympus IX71 with a digital EMCCD camera (Cascade 512B) and a 40×/0.6 NA objective. […] Quantification was done with ImageJ (NIH).
In order to visualize the uneven binding of the peptides to the surface of the macrophages, a live staining experiment of THP-1, J774A.1, and A549 cells, which all express SIRPα at different levels, was performed with FAM-labeled nS-wt and nS-X and analyzed by confocal microscopy (FIG. 11). […] Fluorescence of nS-X was consistently lower on THP-1 and J774A.1 macrophages relative to nS-wt. […]

In a further test the target is T1, soluble human SIRPα (Homo sapiens, UniProt P78324).
T1 construct: Soluble human SIRPα fused with glutathione s-transferase (SIRPα-GST); GST (glutathione S-transferase); made in house
Put plainly: Binding of biotinylated peptides on streptavidin beads to soluble SIRPα. The source says: SIRPα Expression and Purification. Soluble human SIRPα fused with glutathione s-transferase (SIRPα-GST) was expressed and purified as previously published (Tsai, et al., 2008, J. Cell Biol. 180:989-1003).
Peptide biotinylation: NHS-biotin (Thermo Fischer) was mixed with nS-wt and nS-V, respectively, following the manufacturer's protocol. The biotinylated peptides were dialyzed against PBS.
Streptavidin-beads binding: Streptavidin-coated polystyrene beads of 2.1 μm radius (Spherotech) were washed and blocked 3x in PBS plus 0.4% BSA. nS-wt-biotin or nS-V-biotin were incubated with the beads for 1 hour at room temperature with shaking. Beads were washed with PBS, then incubated with recombinant SIRPα for 1 hour in ice. Streptavidin beads were labeled with rabbit anti-streptavidin-FITC (Invitrogen) and SIRPα was stained with mouse anti-SIRPα-allophycocyanin (anti-SIRPα-APC; Invitrogen).

“Also recorded” adds a separate entry of the source. No end group written: not given here.

T1 sequence (P78324 31-373 limits assumed): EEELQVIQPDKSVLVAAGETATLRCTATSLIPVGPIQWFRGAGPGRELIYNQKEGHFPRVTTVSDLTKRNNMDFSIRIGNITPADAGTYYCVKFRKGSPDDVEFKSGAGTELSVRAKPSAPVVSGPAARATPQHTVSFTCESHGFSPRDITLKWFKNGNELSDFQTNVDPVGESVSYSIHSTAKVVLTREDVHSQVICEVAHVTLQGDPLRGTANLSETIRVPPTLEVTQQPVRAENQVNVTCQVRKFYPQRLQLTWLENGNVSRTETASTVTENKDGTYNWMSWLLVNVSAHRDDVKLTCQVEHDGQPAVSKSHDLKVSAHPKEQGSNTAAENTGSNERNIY

Turning to “CVELTREGC (HELM PEPTIDE1{C.V.E.L.T.R.E.G.C.[am]}$PEPTIDE1,PEPTIDE1,1:R3-9:R3$$$V2.0; N-terminus assumed; SMILES CC(C)C[C@@H]1NC(=O)[C@H](CCC(=O)O)NC(=O)[C@H](C(C)C)NC(=O)[C@@H](N)CSSC[C@@H](C(N)=O)NC(=O)CNC(=O)[C@H](CCC(=O)O)NC(=O)[C@H](CCCNC(=N)N)NC(=O)[C@H]([C@@H](C)O)NC1=O) [nS-Cyc]”, the “effect on phagocytosis of opsonized RBCs (words)” value (“effect on phagocytosis … (words)” for short) was “greater effect in perturbing the CD47-SIRPα interaction compared to linear nS-wt; also recorded: slightly higher levels than opsonized and anti-CD47 blocked RBCs; also recorded: Maximum levels of phagocytic macrophages” in the test with human THP-1 macrophages [1] (saturating / 50 μM peptide); “slightly higher levels than opsonized and anti-CD47 blocked RBCs” in test [2]. In addition, the “fold more active than the linear counterpart” value in test [2] (mouse macrophages, opsonized RBCs) is on record as “roughly 20 fold”. Besides, in test [3], the “effect on phagocytosis of opsonized WT and SIRPα KO B16 cells” value is “Maximum levels of phagocytic macrophages”. Moreover, the “residual adhesion of opsonized RBCs to macrophages” value (“residual adhesion of opsonized RBCs” below) in the test with human THP-1 macrophages [4] is “lowest amount of residual adhesion to macrophages”.

“LETVEGTR (LETVEGTR-NH2) [nS-X, scrambled control peptide]”: the “effect on phagocytosis … (words)” value in the test on human THP-1 macrophages [1] (saturating / 50 μM peptide) was “no effect is observed; also recorded: unaffected; also recorded: do not affect baseline engulfment of opsonized RBCs; also recorded: does not affect opsonization-driven eating of RBCs”; in the test with human THP-1 macrophages [1] (saturating / 50 μM peptide, listed as nSX) it was “do not have effects on phagocytosis”. For the same sequence, the “effect on pTyr signal” value is listed as “inhibition of phosphorylation is not observed” with THP-1 macrophages and “had no effect on pTyr” with THP-1 macrophages (listed as nSX). For the same sequence, the “effect on phagocytosis of opsonized WT and SIRPα KO B16 cells” value in test [3] is “no effect; also recorded: does not affect opsonization-driven eating”. In addition, the “residual adhesion of opsonized RBCs” value in the test on human THP-1 macrophages [4] is recorded as “predominantly adherent RBCs”. The “binding to A549 cells” value in test [5] was “fluorescence was not observed at either concentration”.

On to “VTELFREG (VTELFREG-NH2) [nS-F, nano-Self peptide with Thr to Phe mutation]”, for which the “effect on phagocytosis … (words)” value with human THP-1 macrophages [1] (20 nM peptide) is given as “did not significantly change the amount of macrophage eating relative to anti-CD47 treatment; also recorded: only modest activity”; with human THP-1 macrophages [1] (saturating / 50 μM peptide), “significantly greater than any other peptide tested; also recorded: Maximum levels of phagocytic macrophages”; in test [2], “significantly greater than any other peptide tested”. In addition, the “increase of macrophage phagocytosis relative to nS-wt” value in the test on human THP-1 macrophages [1] (saturating peptide) is “roughly 25%”. The “effect on pTyr signal” value with THP-1 macrophages was “also suppressed pTyr”. Moreover, in test [3], the “effect on phagocytosis of opsonized WT and SIRPα KO B16 cells” value is given as “Maximum levels of phagocytic macrophages”. Besides, the “residual adhesion of opsonized RBCs” value with human THP-1 macrophages [4] is “lowest amount of residual adhesion to macrophages”.

VTELVREG [nS-V, VTELVREG]: the figures for the “effect on phagocytosis … (words)” value with human THP-1 macrophages [1] (20 nM peptide) and with human THP-1 macrophages [1] (saturating / 50 μM peptide) were “did not significantly change the amount of macrophage eating relative to anti-CD47 treatment” and “activity profiles in phagocytosis assays that are similar to the monovalent nS-F”, respectively. Moreover, the “SIRPα binding to peptide-coated beads” value at soluble human SIRPα is on record as “fluorescence is only observed in the presence of biotinylated peptide”.
